From article PMC6853232, “Discovery and evaluation of novel synthetic 5-alkyl-4-oxo-4,5-dihydro-[1,2,4]triazolo[4,3-a]quinoxaline-1-carbox-amide derivatives as anti-inflammatory agents” (Journal of Enzyme Inhibition and Medicinal Chemistry, 2019)

Legend:
[1] = tested on: COX-2 protein expression in LPS-induced RAW 264.7 cells; test: Western blot, COX-2 protein expression; format: cell-based, mouse; details: 15 µM, LPS 1 µg/mL, p < .001
Experimental: (§1) The cells were collected and washed three times with ice-cold PBS. The cells were treated with a cell lysis buffer [50 mM Tris (pH 7.6), 150 mM NaCl, 5 mM EDTA (pH 8.0), 0.6% NP-40, 1 mM Na3VO4, 20 mM β-glycerophosphate, 1 mM phenylmethylsulfonyl fluoride, 2 mM p-nitrophenyl phosphate, and 1:25 Complete Mini Protease Inhibitor cocktail (Boehringer, Mannheim,Germany)] and kept on ice for 30 min. The cell lysates were centrifuged (12,000 g at 4 °C) for 5 min to obtain a cytosolic fraction. The protein concentration was determined by BCA protein assay kit (Beyotime, Haimen, China). Aliquots of the lysates were separated on 10% sodium dodecyl sulphate (SDS)-polyacrylamide gel electrophoresis (PAGE) and then electro blotted onto a polyvinylidene difluoride (PVDF) membrane. The blots were blocked with 5% (w/v) non-fat dry milk for 2 h at 37 °C, followed by incubation with specific primary antibody at 4 °C overnight. Blots were washed with Tween 20/Tris-buffered saline [TTBS, 20 mM Tris–HCl buffer, pH 7.6, containing 137 mM NaCl and 0.05% (vol/vol) Tween 20] and incubated with a peroxidase-conjugated secondary antibody for 1 h. Blots were again washed with TTBS and the immune active proteins were detected using ECL plus (Thermo, USA). […] Results are expressed as the relative ratio of the specific band compared with the internal reference.

[2] = tested on: phosphorylation of p38 in RAW 264.7 cells; test: Western blot, LPS-induced phosphorylation of p38; format: cell-based, mouse; details: 30 µM, p < .01
Experimental: (§2) RAW 264.7 cells (5 × 10^5 cells/well) plated onto 6-well plates were incubated for 24 h and treated with 7.5, 15.0 or 30.0 µM of compound 6p for 30 min and then stimulated with […] of LPS for 24 h. The cells were collected and washed three times with ice-cold PBS. The cells were treated with a cell lysis buffer [50 mM Tris (pH 7.6), 150 mM NaCl, 5 mM EDTA (pH 8.0), 0.6% NP-40, 1 mM Na3VO4, 20 mM β-glycerophosphate, 1 mM phenylmethylsulfonyl fluoride, 2 mM p-nitrophenyl phosphate, and 1:25 Complete Mini Protease Inhibitor cocktail (Boehringer, Mannheim,Germany)] and kept on ice for 30 min. The cell lysates were centrifuged (12,000 g at 4 °C) for 5 min to obtain a cytosolic fraction. The protein concentration was determined by BCA protein assay kit (Beyotime, Haimen, China). Aliquots of the lysates were separated on 10% sodium dodecyl sulphate (SDS)-polyacrylamide gel electrophoresis (PAGE) and then electro blotted onto a polyvinylidene difluoride (PVDF) membrane. The blots were blocked with 5% (w/v) non-fat dry milk for 2 h at 37 °C, followed by incubation with specific primary antibody at 4 °C overnight. […] Blots were again washed with TTBS and the immune active proteins were detected using ECL plus (Thermo, USA). […] Results are expressed as the relative ratio of the specific band compared with the internal reference.

[3] = tested on: TNF-α production in LPS-stimulated RAW264.7 cells; test: Cytokine production assay (ELISA), TNF-α; format: cell-based, mouse
Experimental: RAW264.7 cells were seeded at 3 × 10^5 cells/well in a 48-well microplate and incubated overnight.The cells were pre-treated with the different concentrations of the test compunds (3, 7.5, 10 or 30 µM) for 30 min before the stimulation with LPS (1 µg/mL). According to the protocol of the manufacturer, supernatants were harvested at the 24th hour for the assay of TNF-α or IL-6 with ELISA kits (BD Biosciences, San Diego, CA, USA). Briefly, 100 µL of biotinylated antibody reagent and the culture supernatants were added to anti-mouse TNF-α or IL-6 precoated 96-well plates, and the plates were incubated for 2 h at RT. The plate was washed with a washing buffer and subsequently incubated with 100 µL of the streptavidin-HRP solution for 1 h at RT. The plate was washed, and incubated with 100 µL of TMB substrate solution for 30 min at RT in the dark. The reaction was stopped by adding 50 µL of stop solution, and then the absorbance was measured at 450 nm by a plate reader. A standard curve was produced for each assay plate using serially diluted recombinant IL-6.

[4] = tested on: phosphorylation of JNK in RAW 264.7 cells; test: Western blot, LPS-induced phosphorylation of JNK; format: cell-based, mouse
Experimental: as §2

[5] = MTT assay for cell viability; format: cell-based, mouse; details: mouse, RAW264.7 macrophage cells; 30 μM, 24 h, RAW264.7 cells
Experimental: The RAW 264.7 mouse macrophage cell line was obtained from the China Cell Line Bank (Beijing, China). Cells were cultured in complete medium (DMEM supplemented with 10% heat-inactivated FBS, 3 mM glutamine and antibiotics (100 U/mL penicillin and 100 U/mL streptomycin)) at 37 °C in a humidified incubator containing 5% CO2 and 95% air. […]
Cell viability studies induced by synthesised compounds were evaluated by 3-(4,5-dimethylthiazol-2-yl)-2,5-diphenyltetrazolium bromide (MTT) assay. RAW264.7 macrophages were seeded in 96-well plates at a density of 5 × 10^5 cells/mL in complete medium and incubated for 24 h (100 µL/well). Then the cells were treated with different concentrations of synthesised compounds for 24 h. 150 µL MTT (5 g/L in PBS) was added to each well and the cells were further incubated for 4 h. The supernatant was removed and the cells were lysed with 150 µL/well DMSO. The optical density was measured at 570 nm on a microplate reader (Thermo Scientific, MA, USA).

[6] = tested on: iNOS protein expression in LPS-induced RAW 264.7 cells; test: Western blot, iNOS protein expression; format: cell-based, mouse
Experimental: as §1

melting point: 286 to 288 °C
SMILES: COc1cc(Cn2c(=O)c3nnc(C(N)=O)n3c3ccccc32)cc(OC)c1OC [6p, 5-(3,4,5-trimethoxybenzyl)-4-oxo-4,5-dihydro-[1,2, 4]triazolo[4,3-a]quinoxaline-1-carboxamide]
inhibition of COX-2 protein expression [1]: 53.44%
phosphorylation of p38 [2]: markedly diminished
production of TNF-α ([3]; 3 µM, p < .001): significantly inhibited
LPS-induced increase in TNF-α levels ([3]; LPS 1 µg/mL, 24 h, different concentrations): inhibited in a concentration-dependent manner
phosphorylation of JNK ([4]; 30 µM, p < .001): markedly diminished
LPS-induced phosphorylation of JNK, concentration dependence ([4]; 7.5, 15 and 30 µM): concentration-dependent manner
viability at 24 h, 30 µM [5]: 83.7 ± 1.53%
inhibition of iNOS protein expression ([6]; 30 µM, LPS 1 µg/mL, p < .001): 39.89%
iNOS protein expression, dose dependence ([6]; 7.5, 15 and 30 µM): dose-dependent manner
